{"source": "patent US20090326035A1", "about": "“Compositions and Methods for Preventing or Reducing Postoperative Ileus and Gastric Stasis in Mammals” (priority 2006, published 2009)", "test_system": "Male Sprague Dawley rats", "assay": "Charcoal transit model of postoperative ileus (POI) after cecum manipulation", "type": "in vivo, rat", "conditions": "for Prevention of POI (in words): delivered via gel to the manipulated intestines; for % GI Transfer: 4 h after oral charcoal meal; for Dose response of the effect on POI (in words): low versus high dose gel formulations", "description": "The charcoal transit model is an acceptable and established model to study the effects of abdominal surgery on intestinal motility. We followed the procedure as described by De Winter et al. (1997) (Reference: Effect of adrenergic and nitrergic blockade on experimental ileus in rats. British Journal of Pharmacology (1997) 120, 464-468. Benedicte Y. De Winter, Guy E. Boeckxstaens, Joris G. De Man, Tom G. Moreels, Arnold G. Herman & Paul A. Pelckmans). The model simulates the abdominal procedure in human and tests for gastric emptying and intestinal motility by the transfer of a charcoal meal fed to the animals.\nMale Sprague Dawley rats, weighing 250-275 g (8 in group) were anesthetized with a xylazine/ketamine cocktail, injected IM, the abdomen was shaved and disinfected with alcohol and Betadyne. A 2.5 cm incision was made from the xyphoid process caudally. The intestinal contents was exteriorized onto wet gauze. The cecum was manipulated gently for 1 minute. The abdominal contents were replaced, the treatment was applied, and the body wall was closed with 4-0 PDS for the fascia and muscle layers. The skin was closed with wound clips. In addition, two control groups were tested as well: incision only and naïve. Treatment groups included two control groups, surgery (incision only) and naïve, and two treatment groups, a high and low dose of Diclofenac, as well as 3 wt % Na-CMC gel alone. The high and low dose of Diclofenac, as well as the 3 wt % Na-CMC gel were prepared as described above. 8 rats were included in each group with a total of 40 rats.\nThe rats were treated with an oral solution of charcoal (10%) in acacia gum (2%). Four hours following oral administration rats were euthanized with Euthasole. The intestines were exteriorized and the distance traveled by the charcoal meal was measured as well as the full length of the intestines (from the pylorus through the anus). Results are expressed as percent of distance traveled relative to the full length of the intestines.\nMale Sprague Dawley rats, weighing 250-275 g (8 in group) were anesthetized with a xylazine/ketamine cocktail, injected IM, the abdomen was shaved and disinfected with alcohol and Betadyne. A 2.5 cm incision was made from the xyphoid process caudally. The intestinal contents was exteriorized onto wet gauze. The cecum was manipulated gently for 1 minute. The abdominal contents were replaced, the treatment was applied, and the body wall was closed with 4-0 PDS for the fascia and muscle layers. The skin was closed with wound clips. In addition, two control groups were tested as well: incision only and naïve. Treatment groups included two control groups, surgery (incision only) and naïve, and 4 treatment groups, a high and low dose of Diclofenac, a high and a low dose of Naproxen, as well as 3 wt % Na-CMC gel alone. The high and low dose of Diclofenac, as well as the 3 wt % Na-CMC gel were prepared as described above. 8 rats were included in each group with a total of 56 rats.", "key": {"[1]": {"conditions": "Example 2, both doses (0.3 and 2.0 mg) in gel, compared with non-treated and gel-alone animals"}, "[2]": {"conditions": "Example 2, high dose 2.0 mg in 3 wt % Na-CMC gel applied after intestinal manipulation"}, "[3]": {"conditions": "Example 2, low dose 0.3 mg in 3 wt % Na-CMC gel applied after intestinal manipulation"}}, "data": [{"smiles": "O=C(O)Cc1ccccc1Nc1c(Cl)cccc1Cl", "note": "[Diclofenac-Na, Diclofenac sodium]", "values": [{"measurement": "Prevention of POI (in words)", "setting": "Example 1, high dose, listed as Diclofenac sodium", "result": "complete prevention"}, {"measurement": "Prevention of POI (in words)", "setting": "Example 1, high dose, listed as diclofenac", "result": "completely alleviated the POI"}, {"measurement": "% GI Transfer", "setting": "Example 1, listed as 'Diclofenac-Na high', dose printed 0.3 mg, in 3 wt % Na-CMC gel applied after intestinal manipulation, distance traveled relative to full intestine length", "result": 73.58, "unit": "%"}, {"measurement": "% GI Transfer", "setting": "Example 1, listed as 'Diclofenac-Na low', dose printed 1.0 mg, in 3 wt % Na-CMC gel applied after intestinal manipulation, distance traveled relative to full intestine length", "result": 95.05, "unit": "%"}, {"measurement": "Prevention of POI (in words)", "setting": "Example 1, low dose", "result": "significant prevention of POI"}, {"measurement": "Dose response of the effect on POI (in words)", "result": "dose related manner"}]}, {"smiles": "O=C(c1ccccc1)c1ccc2n1CCC2C(=O)O", "note": "(stereo not drawn) [Ketorolac]", "values": [{"measurement": "Alleviation of POI (in words)", "setting": "[1]", "result": "significant alleviation of the POI"}, {"measurement": "% GI Transfer", "setting": "[2]", "result": 69.84, "unit": "%"}, {"measurement": "% GI Transfer", "setting": "[3]", "result": 70.99, "unit": "%"}, {"measurement": "Dose response of the effect on POI (in words)", "result": "dose response was not observed"}]}, {"smiles": "COc1ccc2cc([C@H](C)C(=O)O)ccc2c1", "note": "[Naproxen]", "values": [{"measurement": "Alleviation of POI (in words)", "setting": "[1]", "result": "both doses improved on the gastric emptying and intestinal transfer"}, {"measurement": "% GI Transfer", "setting": "[2]", "result": 65.34, "unit": "%"}, {"measurement": "Alleviation of POI (in words)", "setting": "Example 2, high dose (2.0 mg) in gel", "result": "not completely curative"}, {"measurement": "% GI Transfer", "setting": "[3]", "result": 56.9, "unit": "%"}, {"measurement": "Dose response of the effect on POI (in words)", "result": "dose related prevention of the POI"}]}]}
